Measurements from PubChem BioAssay AID256 (DTP/NCI, 2004).
“And” between values parts separate entries of the source, which are not always exact repeats. Identical values can stand only once. Inconclusive results and toxic doses are left out. Rule for the calls: active = survival T/C of 150% or more; inactive = T/C below 125% in these data.

Tested on: CD2F1 mice, L1210 leukemia ip, survival T/C
Assay: NCI In Vivo Anticancer Drug Screen. Data for tumor model L1210 Leukemia (intraperitoneal) in CD2F1 (CDF1) mice
Settings: higher = longer survival
Method: The antitumor activity of compounds was measured in mice bearing transplantable tumors. Survival or tumor size were measured and the results are expressed as the measurement made in the treated group (T) divided by the measurement made in the vehicle treated control group (C). The tumor model used in this assay is L1210 Leukemia (intraperitoneal) in CD2F1 (CDF1) mice

[1] = endpoint: mean survival time, dose: 100.0 mg/kg/injection, schedule: Q01DX009 (ip), vehicle: saline with Tween-80
[2] = endpoint: mean survival time, dose: 200.0 mg/kg/injection, schedule: Q01DX009 (ip), vehicle: saline with Tween-80
[3] = endpoint: mean survival time, dose: 400.0 mg/kg/injection, schedule: Q01DX009 (ip), vehicle: saline with Tween-80
[4] = endpoint: mean survival time, dose: 100.0 mg/kg/injection, schedule: Q04DX003 (ip), vehicle: saline with Tween-80
[5] = endpoint: mean survival time, dose: 200.0 mg/kg/injection, schedule: Q04DX003 (ip), vehicle: saline with Tween-80
[6] = endpoint: mean survival time, dose: 400.0 mg/kg/injection, schedule: Q04DX003 (ip), vehicle: saline with Tween-80
[7] = endpoint: mean survival time, dose: 100.0 mg/kg/injection, schedule: Q01DX001 (ip), vehicle: saline
[8] = endpoint: mean survival time, dose: 200.0 mg/kg/injection, schedule: Q01DX001 (ip), vehicle: saline
[9] = endpoint: mean survival time, dose: 400.0 mg/kg/injection, schedule: Q01DX001 (ip), vehicle: saline
[10] = endpoint: mean survival time, dose: 50.0 mg/kg/injection, schedule: Q01DX009 (ip), vehicle: saline
[11] = endpoint: mean survival time, dose: 100.0 mg/kg/injection, schedule: Q01DX009 (ip), vehicle: saline
[12] = endpoint: mean survival time, dose: 50.0 mg/kg/injection, schedule: Q01DX009 (ip), vehicle: saline with Tween-80

Measured: T/C

CC(=O)OCC(=O)[C@@]1(O)CC[C@H]2[C@@H]3CCC4=CC(=O)C=C[C@]4(C)[C@H]3C(=O)C[C@@]21C
inactive: endpoint: mean survival time, dose: 12.5 mg/kg/injection, schedule: Q04DX003 (ip), vehicle: Klucel (hydroxypropylcellulose) (HPC) 101 % of control | endpoint: mean survival time, dose: 25.0 mg/kg/injection, schedule: Q04DX003 (ip), vehicle: Klucel (hydroxypropylcellulose) (HPC) 109 % of control | endpoint: mean survival time, dose: 50.0 mg/kg/injection, schedule: Q04DX003 (ip), vehicle: Klucel (hydroxypropylcellulose) (HPC) 100 % of control

CC(C)CCCC(C)C1CCC2C3CC=C4CC(OC(=O)CCC(C)C)CC(O)C4(C)C3CCC12C (stereo unspecified)
inactive: [1] 96 % of control | [2] 94 % of control | [3] 94 % of control

CC(=O)N(C)c1ccc(S(=O)(=O)Cl)cc1
inactive: endpoint: mean survival time, dose: 100.0 mg/kg/injection, schedule: Q01DX001 (ip), vehicle: saline with Tween-80 100 % of control | endpoint: mean survival time, dose: 200.0 mg/kg/injection, schedule: Q01DX001 (ip), vehicle: saline with Tween-80 105 % of control | endpoint: mean survival time, dose: 400.0 mg/kg/injection, schedule: Q01DX001 (ip), vehicle: saline with Tween-80 93 % of control

CCC(C)(C)OC(=O)Nc1ccc(C)c(NC(=O)OC(C)(C)CC)c1
inactive: endpoint: mean survival time, dose: 75.0 mg/kg/injection, schedule: Q01DX001 (ip), vehicle: other 86 % of control | endpoint: mean survival time, dose: 150.0 mg/kg/injection, schedule: Q01DX001 (ip), vehicle: other 86 % of control | endpoint: mean survival time, dose: 300.0 mg/kg/injection, schedule: Q01DX001 (ip), vehicle: other 90 % of control

CCCCCCCCCCCCCCCCCCNC(=O)Nc1cccc(OC)c1
inactive: endpoint: mean survival time, dose: 200.0 mg/kg/injection, schedule: Q04DX002 (ip), vehicle: saline with Tween-80 96 % of control | endpoint: mean survival time, dose: 400.0 mg/kg/injection, schedule: Q04DX002 (ip), vehicle: saline with Tween-80 101 % of control

COc1cc(C2c3cc4c(cc3[C@@H](OC)[C@H]3COC(=O)C23)OCO4)cc(OC)c1O (stereo partly specified)
inactive: endpoint: median survival time, dose: 1.25 mg/kg/injection, schedule: Q01DX009 (ip), vehicle: saline with Tween-80 108 % of control | endpoint: median survival time, dose: 2.5 mg/kg/injection, schedule: Q01DX009 (ip), vehicle: saline with Tween-80 104 % of control | endpoint: median survival time, dose: 5.0 mg/kg/injection, schedule: Q01DX009 (ip), vehicle: saline with Tween-80 105 % of control | endpoint: median survival time, dose: 10.0 mg/kg/injection, schedule: Q01DX009 (ip), vehicle: saline with Tween-80 103 % of control

CC1OC1C(=O)C1(O)C(C)C(O)C23OC2(C(O)c2c(O)cccc2C3=O)C1O (stereo unspecified)
inactive: endpoint: mean survival time, dose: 0.5 mg/kg/injection, schedule: Q01DX009 (ip), vehicle: Klucel (hydroxypropylcellulose) (HPC) 98 % of control and 101 % of control | endpoint: mean survival time, dose: 1.0 mg/kg/injection, schedule: Q01DX009 (ip), vehicle: Klucel (hydroxypropylcellulose) (HPC) 98 % of control and 102 % of control (2×) | endpoint: mean survival time, dose: 2.0 mg/kg/injection, schedule: Q01DX009 (ip), vehicle: Klucel (hydroxypropylcellulose) (HPC) 104 % of control and 105 % of control and 107 % of control | endpoint: mean survival time, dose: 4.0 mg/kg/injection, schedule: Q01DX009 (ip), vehicle: Klucel (hydroxypropylcellulose) (HPC) 114 % of control and 102 % of control and 103 % of control | endpoint: mean survival time, dose: 8.0 mg/kg/injection, schedule: Q01DX009 (ip), vehicle: Klucel (hydroxypropylcellulose) (HPC) 120 % of control and 104 % of control and 109 % of control | endpoint: mean survival time, dose: 16.0 mg/kg/injection, schedule: Q01DX009 (ip), vehicle: Klucel (hydroxypropylcellulose) (HPC) 104 % of control

O=[N+]([O-])c1ccc(N/N=C(\c2ccccc2)C2OCCC2c2ccccc2)c([N+](=O)[O-])c1 (stereo unspecified)
inactive: [4] 97 % of control | [5] 91 % of control | [6] 94 % of control

CSc1nc(N)cc(N)n1
inactive: [1] 98 % of control | [4] 98 % of control | [2] 95 % of control | [5] 97 % of control | [3] 100 % of control | [6] 102 % of control

CN(C(=O)Nc1ccc([N+](=O)[O-])cc1)c1ccccc1
inactive: [7] 96 % of control | [8] 98 % of control | [9] 102 % of control

CC(C)(C)OOC(=O)C1CCCCCCC1
inactive: [4] 98 % of control | [5] 96 % of control | [6] 96 % of control

Cc1ccc([N+](=O)[O-])cc1NC(=O)Nc1onc(C)c1C
inactive: endpoint: mean survival time, dose: 12.5 mg/kg/injection, schedule: Q01DX009 (ip), vehicle: Klucel (hydroxypropylcellulose) (HPC) 89 % of control | endpoint: mean survival time, dose: 25.0 mg/kg/injection, schedule: Q01DX009 (ip), vehicle: Klucel (hydroxypropylcellulose) (HPC) 95 % of control

CC([NH-])Cc1ccccc1.CC([NH-])Cc1ccccc1.[Cl][Pt+2][Cl] (stereo unspecified)
inactive: endpoint: mean survival time, dose: 3.13 mg/kg/injection, schedule: Q04DX003 (ip), vehicle: distilled water + Tween-80 96 % of control | endpoint: mean survival time, dose: 6.25 mg/kg/injection, schedule: Q04DX003 (ip), vehicle: distilled water + Tween-80 96 % of control | endpoint: mean survival time, dose: 12.5 mg/kg/injection, schedule: Q04DX003 (ip), vehicle: distilled water + Tween-80 96 % of control | endpoint: mean survival time, dose: 25.0 mg/kg/injection, schedule: Q04DX003 (ip), vehicle: distilled water + Tween-80 86 % of control | endpoint: mean survival time, dose: 50.0 mg/kg/injection, schedule: Q04DX003 (ip), vehicle: distilled water + Tween-80 86 % of control | endpoint: mean survival time, dose: 100.0 mg/kg/injection, schedule: Q04DX003 (ip), vehicle: distilled water + Tween-80 96 % of control | endpoint: mean survival time, dose: 200.0 mg/kg/injection, schedule: Q04DX003 (ip), vehicle: distilled water + Tween-80 89 % of control

COP(=O)(OC)C(=O)c1cccc2ccccc12
inactive: [4] 95 % of control | [5] 93 % of control | [6] 96 % of control

CCCC1NNC(CCC)NN1 (stereo unspecified)
inactive: endpoint: mean survival time, dose: 75.0 mg/kg/injection, schedule: Q01DX001 (ip), vehicle: saline 102 % of control

CCCCC/C(C)=N\O
inactive: [10] 98 % of control | [7] 104 % of control | [11] 98 % of control | [4] 103 % of control | [8] 95 % of control | endpoint: mean survival time, dose: 200.0 mg/kg/injection, schedule: Q01DX009 (ip), vehicle: saline 101 % of control | [5] 97 % of control | [9] 98 % of control

CN(C)C(=O)c1cc[n+](Cc2ccc(Cl)c(Cl)c2)cc1
inactive: endpoint: mean survival time, dose: 25.0 mg/kg/injection, schedule: Q01DX009 (ip), vehicle: saline 98 % of control | [10] 121 % of control | [11] 89 % of control

CCOC(=O)Nc1cc(C(F)(F)F)cc(C(F)(F)F)c1
inactive: [1] 94 % of control | [2] 94 % of control | [3] 96 % of control

CCOC(=O)C(=CNc1ccc(C)cn1)C(=O)OCC
inactive: [1] 93 % of control | [4] 92 % of control | [2] 98 % of control | [5] 95 % of control | [3] 97 % of control | [6] 103 % of control

Cc1ccc(C)c(NC(=O)c2ccc(Cl)cc2Cl)c1
inactive: [4] 98 % of control | [5] 98 % of control | [6] 96 % of control

CCOC(=O)CCSCCC(=O)OCC
inactive: [4] 100 % of control | [5] 96 % of control | [6] 98 % of control

c1ccc2c(c1)[nH]c1ccncc12
inactive: endpoint: mean survival time, dose: 25.0 mg/kg/injection, schedule: Q01DX009 (ip), vehicle: saline with Tween-80 98 % of control | [12] 90 % of control | [1] 87 % of control

COC(=O)C1(C)CCCC2(C)C3CC(O)C(C(C)C)=CC3(O)CCC12 (stereo unspecified)
inactive: [1] 100 % of control | [2] 96 % of control | [3] 86 % of control

C/C=C\c1ccc(OCCOC(=O)Nc2ccc(Cl)cc2OC)c(OC)c1
inactive: [12] 89 % of control | [1] 89 % of control | [2] 93 % of control

CC1(C(=O)c2ccccc2)OC1c1ccccc1 (stereo unspecified)
inactive: endpoint: mean survival time, dose: 100.0 mg/kg/injection, schedule: Q04DX003 (ip), vehicle: acetone 103 % of control | endpoint: mean survival time, dose: 200.0 mg/kg/injection, schedule: Q04DX003 (ip), vehicle: acetone 103 % of control | endpoint: mean survival time, dose: 400.0 mg/kg/injection, schedule: Q04DX003 (ip), vehicle: acetone 98 % of control

O=S1Cc2ccccc2C1
inactive: [4] 98 % of control

Nc1nc(N)c2c(n1)NCN(CCc1cccc(Cl)c1)C2
inactive: endpoint: mean survival time, dose: 0.75 mg/kg/injection, schedule: Q01DX009 (ip), vehicle: distilled water + Tween-80 96 % of control | endpoint: mean survival time, dose: 1.5 mg/kg/injection, schedule: Q01DX009 (ip), vehicle: distilled water + Tween-80 100 % of control | endpoint: mean survival time, dose: 3.0 mg/kg/injection, schedule: Q01DX009 (ip), vehicle: distilled water + Tween-80 98 % of control | endpoint: mean survival time, dose: 6.0 mg/kg/injection, schedule: Q01DX009 (ip), vehicle: distilled water + Tween-80 96 % of control | endpoint: mean survival time, dose: 12.0 mg/kg/injection, schedule: Q01DX009 (ip), vehicle: distilled water + Tween-80 94 % of control | endpoint: mean survival time, dose: 24.0 mg/kg/injection, schedule: Q01DX009 (ip), vehicle: distilled water + Tween-80 94 % of control

COC(=O)CNC(=O)C(F)(F)F
inactive: [7] 104 % of control | [4] 103 % of control | [8] 112 % of control | [5] 101 % of control | [9] 104 % of control | [6] 103 % of control

CC(=O)c1cc(-c2ccccc2)nc2c(Cl)cc(Cl)cc12
inactive: [7] 102 % of control | [8] 91 % of control | [9] 103 % of control
